From US7608619B2, “Substituted oxazole compounds with analgesic activity” (Gruenenthal GmbH, priority 2005, dated 2009)

The compounds below were run against T1, human μ-opiate receptor (Homo sapiens, UniProt P35372) (assay: Affinity for the human μ-opiate receptor ([3H]-naloxone displacement, SPA, CHO-K1 membrane preparation)). Details: test substance 1 μmole/l; displacement of 1 nmole/l [3H]-naloxone; percentage inhibition of the specific binding.
T1 construct: purchased Nen company, Zaventem, Belgium RB-HOM; host or cells: CHO-K1 cells (membrane preparation)
T1 sequence (P35372 whole entry): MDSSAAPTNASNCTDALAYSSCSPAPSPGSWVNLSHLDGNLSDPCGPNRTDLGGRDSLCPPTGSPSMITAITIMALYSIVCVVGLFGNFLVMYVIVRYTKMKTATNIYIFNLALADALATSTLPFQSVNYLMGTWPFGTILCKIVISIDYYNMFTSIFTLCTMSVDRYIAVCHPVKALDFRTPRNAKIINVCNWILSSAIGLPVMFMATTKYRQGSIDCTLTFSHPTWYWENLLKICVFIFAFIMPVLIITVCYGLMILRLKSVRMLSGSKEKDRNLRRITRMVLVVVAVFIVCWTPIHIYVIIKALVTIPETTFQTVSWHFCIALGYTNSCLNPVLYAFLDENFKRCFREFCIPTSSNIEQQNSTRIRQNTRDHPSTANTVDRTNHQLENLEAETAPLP
Method in brief: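 [3H]-naloxone (1 nmol/l) displacement by SPA with WGA beads, using membranes of CHO-K1 cells expressing the receptor, in 50 mmol/l Tris-HCl with 0.05% azide and 0.06% BSA; 90 min at room temperature. Non-specific binding defined with 25 μmol/l naloxone. Value is % inhibition of specific binding at 1 μmol/l test compound.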
In the case of `CN(C)C(c1cccs1)C1CCC(C(c2nc(Cc3ccccc3)c(N3CCCC3)o2)N2CCN(c3ccc(F)cc3)CC2)CC1` (centres unmarked) [compound 142, [(4.-{(4-benzyl-5-pyrrolidin-1-yl-oxazol-2-yl)-[4-(4-fluorophenyl)-piperazin-1-yl]-me.thyl}-cyclohexyl)-thiophen-2-yl-methyl]-dimethylamine], the “μ-opioid receptor, % inhibition [1 μM]” value is reported as 85%.

Same assay, conditions: test substance 1 μmole/l; displacement of 1 nmole/l [3H]-naloxone; percentage inhibition of the specific binding; read-out: μ-opioid receptor, % inhibition [1 μM]
`CN(C)C(c1cccc(F)c1)C1CCC(C(c2nc(Cc3ccccc3)c(N3CCCC3)o2)N2CCOCC2)CC1` (centres unmarked) [compound 120, [{4-[(4-benzyl-5-pyrrolidin-1-yl-oxazol-2-yl)-morpholin-4-yl-methyl]-cyclohexyl}-(3-fluorophenyl)-methyl]-dimethylamine] was tested, and the inhibition at 1 µM was 75%. Compound `CN(C)C(c1cccc(F)c1)C1CCC(C(c2nc(Cc3ccccc3)c(N3CCOCC3)o2)N2CCOCC2)CC1` (centres unmarked) [compound 121, [{4-[(4-benzyl-5-morpholin-4-yl-oxazol-2-yl)-morpholin-4-yl-methyl]-cyclohexyl}-(3-fluorophenyl)-methyl]-dimethylamine] has an inhibition at 1 µM of 67%. `CN(C)C(c1cccc(F)c1)C1CCC(C(c2nc(Cc3ccccc3)c(N3CCCC3)o2)N2CCN(c3ccc(F)cc3)CC2)CC1` (centres unmarked) [compound 122, [(4-{(4-benzyl-5-pyrrolidin-1-yl-oxazol-2-yl)-[4-(4-fluorophenyl)-piperazin-1-yl]-methyl}-cyclohexyl)-(3-fluorophenyl)-methyl]-dimethylamine] was tested, and the inhibition at 1 µM was 72%. `COc1ccc(N2CCN(C(c3nc(Cc4ccccc4)c(N4CCCC4)o3)C3CCC(C(c4cccc(F)c4)N(C)C)CC3)CC2)cc1` (centres unmarked) [compound 123, [(4-{(4-benzyl-5-pyrrolidin-1-yl-oxazol-2-yl)-[4-(4-methoxyphenyl)-piperazin-1-yl]-methyl}-cyclohexyl)-(3-fluorophenyl)-methyl]-dimethylamine] gave an inhibition at 1 µM of 66%. `COc1ccc(N2CCN(C(c3nc(Cc4ccccc4)c(N4CCOCC4)o3)C3CCC(C(c4cccc(F)c4)N(C)C)CC3)CC2)cc1` (centres unmarked) [compound 124, [(4-{(4-benzyl-5-morpholin-4-yl-oxazol-2-yl)-[4-(4-methoxyphenyl)-piperazin-1-yl]-methyl}-cyclohexyl)-(3-fluorophenyl)-methyl]-dimethylamine] gave an inhibition at 1 µM of 60%. `CN(C)C(c1cccc(F)c1)C1CCC(C(c2nc(Cc3ccccc3)c(N3CCCC3)o2)N2CCc3ccccc3C2)CC1` (centres unmarked) [compound 125, [{4-[(4-benzyl-5-pyrrolidin-1-yl-oxazol-2-yl)-(3,4-dihydro-1H-isoquinolin-2-yl)-methyl]-cyclohexyl}-(3-fluorophenyl)-methyl]-dimethylamine] was tested, and the inhibition at 1 µM was 83%. For `CN(C)C(c1cccc(F)c1)C1CCC(C(c2nc(Cc3ccccc3)c(N3CCOCC3)o2)N2CCc3ccccc3C2)CC1` (centres unmarked) [compound 126, [{4-[(4-benzyl-5-morpholin-4-yl-oxazol-2-yl)-(3,4-dihydro-1H-isoquinolin-2-yl)-methyl]-cyclohexyl}-(3-fluorophenyl)-methyl]-dimethylamine], the inhibition at 1 µM was 76%. For `COc1ccc(N2CCN(c3oc(C(C4CCC(C(c5cccc(F)c5)N(C)C)CC4)N4CCc5ccccc5C4)nc3Cc3ccccc3)CC2)cc1` (centres unmarked) [compound 127, [{4-[{4-benzyl-5-[4-(4-methoxy-phenyl)-piperazin-1-yl]-oxazol-2-yl}-(3,4-dihydro-1H-isoquinolin-2-yl)-methyl]-cyclohexyl}-(3-fluorophenyl)-methyl]-dimethylamine], the inhibition at 1 µM was 73%. `CC1CN(c2oc(C(C3CCC(C(c4cccc(F)c4)N(C)C)CC3)N3CCc4ccccc4C3)nc2Cc2ccccc2)CC(C)O1` (centres unmarked) [compound 128, [{4-[[4-benzyl-5-(2,6-dimethyl-morpholin-4-yl)-oxazol-2-yl]-(3,4-dihydro-1H-isoquinolin-2-yl)-methyl]-cyclohexyl}-(3-fluorophenyl)-methyl]-dimethylamine] showed an inhibition at 1 µM of 71%. In the case of `CN(C)C(c1ccc(Cl)cc1)C1CCC(C(c2nc(Cc3ccccc3)c(N3CCCC3)o2)N2CCOCC2)CC1` (centres unmarked) [compound 129, [{4-[(4-benzyl-5-pyrrolidin-1-yl-oxazol-2-yl)-morpholin-4-yl-methyl]-cyclohexyl}-(4-chlorophenyl)-methyl]-dimethylamine], the inhibition at 1 µM is reported as 75%. `CN(C)C(c1ccc(Cl)cc1)C1CCC(C(c2nc(Cc3ccccc3)c(N3CCOCC3)o2)N2CCOCC2)CC1` (centres unmarked) [compound 130, [{4-[(4-benzyl-5-morpholin-4-yl-oxazol-2-yl)-morpholin-4-yl-methyl]-cyclohexyl}-(4-chlorophenyl)-methyl]-dimethylamine] showed an inhibition at 1 µM of 77%. `COc1ccc(N2CCN(c3oc(C(C4CCC(C(c5ccc(Cl)cc5)N(C)C)CC4)N4CCOCC4)nc3Cc3ccccc3)CC2)cc1` (centres unmarked) [compound 131, [[4-({4-benzyl-5-[4-(4-methoxyphenyl)-piperazin-1-yl]-oxazol-2-yl}-morpholin-4-yl-methyl)-cyclohexyl]-(4-chlorophenyl)-methyl]-dimethylamine] was tested, and the inhibition at 1 µM was 64%. In the case of `CC1CN(c2oc(C(C3CCC(C(c4ccc(Cl)cc4)N(C)C)CC3)N3CCOCC3)nc2Cc2ccccc2)CC(C)O1` (centres unmarked) [compound 132, [(4-{[4-benzyl-5-(2,6-dimethylmorpholin-4-yl)-oxazol-2-yl]-morpholin-4-yl-methyl}-cyclohexyl)-(4-chlorophenyl)-methyl]-dimethylamine], the inhibition at 1 µM is reported as 64%. Work on `CN(C)C(c1ccc(Cl)cc1)C1CCC(C(c2nc(Cc3ccccc3)c(N3CCCC3)o2)N2CCN(c3ccc(F)cc3)CC2)CC1` (centres unmarked) [compound 133, [(4-{(4-benzyl-5-pyrrolidin-1-yl-oxazol-2-yl)-[4-(4-fluorophenyl)-piperazin-1-yl]-methyl}-cyclohexyl)-(4-chlorophenyl)-methyl]-dimethylamine] yielded an inhibition at 1 µM of 64%. With `COc1ccc(N2CCN(C(c3nc(Cc4ccccc4)c(N4CCCC4)o3)C3CCC(C(c4ccc(Cl)cc4)N(C)C)CC3)CC2)cc1` (centres unmarked) [compound 134, [(4-{(4-benzyl-5-pyrrolidin-1-yl-oxazol-2-yl)-[4-(4-methoxyphenyl)-piperazin-1-yl]-methyl}-cyclohexyl)-(4-chlorophenyl)-methyl]-dimethylamine] the inhibition at 1 µM was 72%. `COc1ccc(N2CCN(C(c3nc(Cc4ccccc4)c(N4CCOCC4)o3)C3CCC(C(c4ccc(Cl)cc4)N(C)C)CC3)CC2)cc1` (centres unmarked) [compound 135, [(4-{(4-benzyl-5-morpholin-4-yl-oxazol-2-yl)-[4-(4-methoxyphenyl)-piperazin-1-yl]-methyl}-cyclohexyl)-(4-chlorophenyl)-methyl]-dimethylamine] was tested, and the inhibition at 1 µM was 70%. Compound `COc1ccc(N2CCN(C(c3nc(Cc4ccccc4)c(N4CC(C)OC(C)C4)o3)C3CCC(C(c4ccc(Cl)cc4)N(C)C)CC3)CC2)cc1` (centres unmarked) [compound 136, [(4-{[4-benzyl-5-(2,6-dimethylmorpholin-4-yl)-oxazol-2-yl]-[4-(4-methoxy-phenyl)-piperazin-1-yl]-methyl}-cyclohexyl)-(4-chlorophenyl)-methyl]-dimethylamine] has an inhibition at 1 µM of 62%. `CN(C)C(c1ccc(Cl)cc1)C1CCC(C(c2nc(Cc3ccccc3)c(N3CCCC3)o2)N2CCc3ccccc3C2)CC1` (centres unmarked) [compound 137, [{4-[(4-benzyl-5-pyrrolidin-1-yl-oxazol-2-yl)-(3,4-dihydro-1H-isoquinolin-2-yl)-methyl]-cyclohexyl}-(4-chlorophenyl)-methyl]-dimethylamine] showed an inhibition at 1 µM of 85%. `CN(C)C(c1cccs1)C1CCC(C(c2nc(Cc3ccccc3)c(N3CCCC3)o2)N2CCOCC2)CC1` (centres unmarked) [compound 138, ({4-[(4-benzyl-5-pyrrolidin-1-yl-oxazol-2-yl)-morpholin-4-yl-methyl]-cyclohexyl}-thiophen-2-yl-methyl)-dimethylamine] gave an inhibition at 1 µM of 91%. Work on `CN(C)C(c1cccs1)C1CCC(C(c2nc(Cc3ccccc3)c(N3CCOCC3)o2)N2CCOCC2)CC1` (centres unmarked) [compound 139, ({4-[(4-benzyl-5-morpholin-4-yl-oxazol-2-yl)-morpholin-4-yl-methyl]-cyclohexyl}-thiophen-2-yl-methyl)-dimethylamine] yielded an inhibition at 1 µM of 72%. For `COc1ccc(N2CCN(c3oc(C(C4CCC(C(c5cccs5)N(C)C)CC4)N4CCOCC4)nc3Cc3ccccc3)CC2)cc1` (centres unmarked) [compound 140, {[4-({4-benzyl-5-[4-(4-methoxyphenyl)-piperazin-1-yl]-oxazol-2-yl}-morpholin-4-yl-methyl)-cyclohexyl]-thiophen-2-yl-methyl}-dimethylamine], the inhibition at 1 µM was 67%. Compound `CC1CN(c2oc(C(C3CCC(C(c4cccs4)N(C)C)CC3)N3CCOCC3)nc2Cc2ccccc2)CC(C)O1` (centres unmarked) [compound 141, [(4-{[4-benzyl-5-(2,6-dimethylmorpholin-4-yl)-oxazol-2-yl]-morpholin-4-yl-methyl}-cyclohexyl)-thiophen-2-yl-methyl]-dimethylamine] has an inhibition at 1 µM of 65%. For `COc1ccc(N2CCN(C(c3nc(Cc4ccccc4)c(N4CCCC4)o3)C3CCC(C(c4cccs4)N(C)C)CC3)CC2)cc1` (centres unmarked) [compound 143, [(4-{(4-benzyl-5-pyrrolidin-1-yl-oxazol-2-yl)-[4-(4-methoxyphenyl)-piperazin-1-yl]-methyl}-cyclohexyl)-thiophen-2-yl-methyl]-dimethylamine], the inhibition at 1 µM was 77%. With `COc1ccc(N2CCN(C(c3nc(Cc4ccccc4)c(N4CCOCC4)o3)C3CCC(C(c4cccs4)N(C)C)CC3)CC2)cc1` (centres unmarked) [compound 144, [(4-{(4-benzyl-5-morpholin-4-yl-oxazol-2-yl)-[4-(4-methoxy-phenyl)-piperazin-1-yl]-methyl}-cyclohexyl)-thiophen-2-yl-methyl]-dimethylamine] the inhibition at 1 µM was 64%. Work on `COc1ccc(N2CCN(C(c3nc(Cc4ccccc4)c(N4CC(C)OC(C)C4)o3)C3CCC(C(c4cccs4)N(C)C)CC3)CC2)cc1` (centres unmarked) [compound 145, [(4-{[4-benzyl-5-(2,6-dimethylmorpholin-4-yl)-oxazol-2-yl]-[4-(4-methoxy-phenyl)-piperazin-1-yl]-methyl}-cyclohexyl)-thiophen-2-yl-methyl]-dimethylamine] yielded an inhibition at 1 µM of 69%.
